# Test results reported in patent publication US9247759B2, “Identification of human T2R receptors that respond to bitter compounds that elicit the bitter taste in compositions, and the use thereof in assays to identify compounds that inhibit (block) bitter taste in compositions and use thereof” (SENOMYX, INC., priority 2007, dated 2016).
# Like-named read-outs stand apart in the source and are kept apart here.
# Columns and labels:
# hT2R14 [1] = target: T1, hT2R14 (Homo sapiens (Human), UniProt Q9NYV8); assay: hT2R14 antagonist high-throughput FLIPR assay, stable cell line with G16g44, agonist aristolochic acid; assay type: cell-based
# Method in brief: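 Compounds were co-applied with 3 μM aristolochic acid, a dose set to reach 70-80% of maximal hT2R14 activation. Read-out was FLIPR fluorescence in a stable HEK293 line co-expressing hT2R14 and G16g44.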
# hT2R13 = hT2R13 (Homo sapiens (Human), UniProt Q9NYV9); assay: hT2R panel inhibition, transient HEK293 G16g44, agonist Oxyphenonium 1 mM; assay type: cell-based; conditions: HEK293, compound at 25 μM
# Method: Specifically, in order to evaluate the inhibitory selectivity of the Compound C compound, this compound was tested against 22 human T2Rs which were deorphaned by Senomyx. These receptors and the bitter ligands that activate these human T2Rs are reported in earlier patent applications which are incorporated by reference herein. These 22 human T2Rs are hT2R1, 3, 4, 5, 7, 8, 9, 10, 13, 14, 16, 44, 51, 54, 55, 61, 63, 64, 65, 67, 71 and 75. The amino acid and nucleic acid sequences of all of these T2Rs may be found in these earlier patent applications. These human T2Rs were each individually transiently transfected into HEK293 cells that stably express the promiscuous G protein G16g44 and functional assays were effected using these receptors as disclosed in these same patent applications. […] The ligands were used at EC80 concentration levels. The list of bitter ligands utilized and the tested ligand concentrations are contained in Table 5 of this example.
# Relating to the foregoing, FIG. 5 contains experimental results wherein Compound C was tested with different agonist compounds. The inhibition activity is represented by the reduction of receptor activity in the presence of Compound C. […] These 13 hT2Rs are hT2R3, 7, 10, 14, 16, 44, 51, 55, 61, 63, 64, 65, and 71.
# hT2R14 [2] = target: T1, hT2R14; assay: hT2R panel inhibition, transient HEK293 G16g44, agonist Aristolochic Acid 2 μM; assay type: cell-based; conditions: HEK293, compound at 25 μM
# Method in brief: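 Agonist challenge was at EC80, with 0.5 mM andrographolide on hT2R8 and 2 μM aristolochic acid on hT2R14. Inhibition was measured in functional assays in HEK293 cells that stably carry the promiscuous G protein G16g44 and were transiently transfected with the individual receptor.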
# hT2R16 = hT2R16 (Homo sapiens (Human), UniProt Q9NYV7); assay: hT2R panel inhibition, transient HEK293 G16g44, agonist Salicin 1 mM; assay type: cell-based; conditions: HEK293, compound at 25 μM; receptor activated to EC80 with the corresponding agonist; read-out: screening result against bitter receptor 16
# Method in brief: (§1)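 Cells stably bearing the promiscuous G protein received one human T2R each by transient transfection and were assayed functionally. Ligands used at EC80; the test compound's inhibition equals the lowered activity.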
# hT2R44 = assay: hT2R panel inhibition, transient HEK293 G16g44, agonist Denatonium 0.5 μM; assay type: cell-based, human; conditions: compound at 25 μM; for screening result against bitter receptor 44: receptor activated to EC80 with the corresponding agonist
# Method in brief: as §1
# hT2R51 = hT2R51 (Homo sapiens (Human), UniProt P59533); assay: hT2R panel inhibition, transient HEK293 G16g44, agonist Prop 2.5 μM; assay type: cell-based; conditions: HEK293, compound at 25 μM; receptor activated to EC80 with the corresponding agonist; read-out: screening result against bitter receptor 51
# Method in brief: as §1
# hT2R54 = assay: hT2R panel inhibition, transient HEK293 G16g44, agonist Ranitidine 5 mM; assay type: cell-based, human; conditions: compound at 25 μM; receptor activated to EC80 with the corresponding agonist
# Method in brief: as §1
# hT2R55 = assay: hT2R panel inhibition, transient HEK293 G16g44, agonist Cinchonine 150 μM; assay type: cell-based, human; conditions: compound at 25 μM; receptor activated to EC80 with the corresponding agonist
# Method in brief: as §1
# hT2R61 = hT2R61 (Homo sapiens (Human), UniProt P59537); assay: hT2R panel inhibition, transient HEK293 G16g44, agonist Aristolochic Acid 25 nM; assay type: cell-based; conditions: HEK293, compound at 25 μM
# Method in brief: as §1
# hT2R63 = assay: hT2R panel inhibition, transient HEK293 G16g44, agonist Caffeine 1 mM or Andrographolide 100 μM; assay type: cell-based, human; conditions: compound at 25 μM; receptor activated to EC80 with the corresponding agonist
# Method in brief: as §1
# hT2R64 = hT2R64 (Homo sapiens (Human), UniProt P59538); assay: hT2R panel inhibition, transient HEK293 G16g44, agonist Aristolochic Acid 1 μM; assay type: cell-based; conditions: HEK293, compound at 25 μM
# Method in brief: as §1
# hT2R67 = assay: hT2R panel inhibition, transient HEK293 G16g44, agonist Andrographolide 5 μM; assay type: cell-based, human; conditions: compound at 25 μM; receptor activated to EC80 with the corresponding agonist
# Method in brief: as §1
# hT2R71 = hT2R71 (Homo sapiens (Human), UniProt P59536); assay: hT2R panel inhibition, transient HEK293 G16g44, agonist Picric Acid 10 μM; assay type: cell-based; conditions: HEK293, compound at 25 μM; receptor activated to EC80 with the corresponding agonist; read-out: screening result against bitter receptor 71
# Method in brief: as §1
# hT2R75 = hT2R75 (Homo sapiens (Human), UniProt P59540); assay: hT2R panel inhibition, transient HEK293 G16g44, agonist Strychnine 1 μM; assay type: cell-based; conditions: HEK293, read-out: screening result against bitter receptor 75, compound at 25 μM; receptor activated to EC80 with the corresponding agonist
# hT2R3 = hT2R3 (Homo sapiens (Human), UniProt Q9NYW6); assay: hT2R panel inhibition, transient HEK293 G16g44, agonist Chloroquine pH6.5 50 μM; assay type: cell-based; conditions: HEK293, compound at 25 μM
# Method in brief: as §1
# hT2R5 = hT2R5 (Homo sapiens (Human), UniProt Q9NYW4); assay: hT2R panel inhibition, transient HEK293 G16g44, agonist Picoline 10 mM; assay type: cell-based; conditions: HEK293, compound at 25 μM
# Method in brief: as §1
# hT2R7 = hT2R7 (Homo sapiens (Human), UniProt Q9NYW3); assay: hT2R panel inhibition, transient HEK293 G16g44, agonist Chloroquine pH6.5 10 mM; assay type: cell-based; conditions: HEK293, compound at 25 μM
# Method in brief: as §1
# hT2R10 = hT2R10 (Homo sapiens (Human), UniProt Q9NYW0); assay: hT2R panel inhibition, transient HEK293 G16g44, agonist Strychnine 50 μM; assay type: cell-based; conditions: HEK293, read-out: screening result against bitter receptor 10, compound at 25 μM; receptor activated to EC80 with the corresponding agonist
# hT2R65 = assay: hT2R panel inhibition, transient HEK293 G16g44, agonist Oleuropein 1 mM; assay type: cell-based, human; conditions: compound at 25 μM; receptor activated to EC80 with the corresponding agonist
# Method in brief: as §1
# [3] = read-out: IC50 on hT2R14 bitter receptor
# [4] = receptor activated to EC80 with the corresponding agonist, read-out: screening result against bitter receptor 13
# [5] = receptor activated to EC80 with the corresponding agonist, read-out: screening result against bitter receptor 14
# [6] = receptor activated to EC80 with the corresponding agonist, read-out: screening result against bitter receptor 61
# [7] = receptor activated to EC80 with the corresponding agonist, read-out: screening result against bitter receptor 64
# [8] = receptor activated to EC80 with the corresponding agonist, read-out: screening result against bitter receptor 3
# [9] = receptor activated to EC80 with the corresponding agonist, read-out: screening result against bitter receptor 5
# [10] = receptor activated to EC80 with the corresponding agonist, read-out: screening result against bitter receptor 7
# Chain of hT2R13 (Q9NYV9 whole entry): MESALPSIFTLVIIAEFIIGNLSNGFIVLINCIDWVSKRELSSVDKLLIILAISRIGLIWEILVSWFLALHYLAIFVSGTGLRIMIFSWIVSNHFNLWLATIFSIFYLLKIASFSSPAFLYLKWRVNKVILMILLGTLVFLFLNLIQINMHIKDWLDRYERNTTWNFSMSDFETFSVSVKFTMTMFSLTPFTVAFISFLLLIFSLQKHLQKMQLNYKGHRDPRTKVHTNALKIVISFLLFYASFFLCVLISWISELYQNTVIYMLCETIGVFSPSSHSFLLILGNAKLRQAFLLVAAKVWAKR
# Chain of hT2R51 (P59533 whole entry): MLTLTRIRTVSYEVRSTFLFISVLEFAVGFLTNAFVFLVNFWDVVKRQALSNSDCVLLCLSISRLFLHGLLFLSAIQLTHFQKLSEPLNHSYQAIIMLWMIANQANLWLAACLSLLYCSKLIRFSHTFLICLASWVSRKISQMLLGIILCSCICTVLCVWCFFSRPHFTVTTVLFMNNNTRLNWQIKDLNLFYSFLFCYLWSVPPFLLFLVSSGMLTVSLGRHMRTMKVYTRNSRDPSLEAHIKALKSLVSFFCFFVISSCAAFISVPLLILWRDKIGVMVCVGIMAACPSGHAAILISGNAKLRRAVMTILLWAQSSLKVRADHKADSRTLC
# Chain of hT2R71 (P59536 whole entry): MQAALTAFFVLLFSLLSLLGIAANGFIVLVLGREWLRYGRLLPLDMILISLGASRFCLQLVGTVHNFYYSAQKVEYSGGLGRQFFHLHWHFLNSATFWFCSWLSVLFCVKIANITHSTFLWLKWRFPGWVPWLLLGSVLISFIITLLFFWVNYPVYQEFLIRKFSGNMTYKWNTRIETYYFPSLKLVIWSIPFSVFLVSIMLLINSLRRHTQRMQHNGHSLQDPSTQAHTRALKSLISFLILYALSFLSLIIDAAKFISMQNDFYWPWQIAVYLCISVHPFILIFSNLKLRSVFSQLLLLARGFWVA
# Chain of hT2R7 (Q9NYW3 whole entry): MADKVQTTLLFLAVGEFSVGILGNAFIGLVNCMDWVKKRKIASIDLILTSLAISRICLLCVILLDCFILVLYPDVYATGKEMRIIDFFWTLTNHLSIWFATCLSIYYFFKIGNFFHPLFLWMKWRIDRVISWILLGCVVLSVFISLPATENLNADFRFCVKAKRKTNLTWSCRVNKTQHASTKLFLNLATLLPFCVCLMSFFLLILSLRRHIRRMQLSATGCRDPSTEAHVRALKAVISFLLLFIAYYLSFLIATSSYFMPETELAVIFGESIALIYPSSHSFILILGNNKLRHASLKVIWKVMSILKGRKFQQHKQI
# Chain of hT2R5 (Q9NYW4 whole entry): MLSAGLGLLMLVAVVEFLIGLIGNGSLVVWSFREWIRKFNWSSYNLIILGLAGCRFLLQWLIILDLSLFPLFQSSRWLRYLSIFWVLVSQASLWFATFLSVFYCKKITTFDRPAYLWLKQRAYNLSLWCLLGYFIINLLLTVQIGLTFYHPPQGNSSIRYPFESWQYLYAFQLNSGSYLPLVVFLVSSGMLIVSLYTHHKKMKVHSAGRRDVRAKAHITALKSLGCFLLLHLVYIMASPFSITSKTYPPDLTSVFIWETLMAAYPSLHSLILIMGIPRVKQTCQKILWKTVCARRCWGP
# Chain of hT2R64 (P59538 whole entry): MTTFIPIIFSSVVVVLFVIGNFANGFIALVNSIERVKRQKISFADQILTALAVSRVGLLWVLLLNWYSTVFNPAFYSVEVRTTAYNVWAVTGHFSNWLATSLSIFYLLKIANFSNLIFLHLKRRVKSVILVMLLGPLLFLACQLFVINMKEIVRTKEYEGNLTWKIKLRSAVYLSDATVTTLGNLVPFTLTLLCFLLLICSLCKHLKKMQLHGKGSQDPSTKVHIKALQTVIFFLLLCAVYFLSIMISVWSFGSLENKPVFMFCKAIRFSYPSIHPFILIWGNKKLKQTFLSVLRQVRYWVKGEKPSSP
# Chain of hT2R61 (P59537 whole entry): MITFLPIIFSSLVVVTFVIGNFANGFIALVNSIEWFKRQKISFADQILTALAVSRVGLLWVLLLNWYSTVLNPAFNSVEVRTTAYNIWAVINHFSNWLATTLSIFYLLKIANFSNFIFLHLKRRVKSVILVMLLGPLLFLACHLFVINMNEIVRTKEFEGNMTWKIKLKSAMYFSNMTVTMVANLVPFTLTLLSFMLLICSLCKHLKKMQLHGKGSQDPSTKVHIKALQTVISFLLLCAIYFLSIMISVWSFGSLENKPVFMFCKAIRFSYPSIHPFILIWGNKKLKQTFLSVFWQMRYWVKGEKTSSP
# Chain of hT2R10 (Q9NYW0 whole entry): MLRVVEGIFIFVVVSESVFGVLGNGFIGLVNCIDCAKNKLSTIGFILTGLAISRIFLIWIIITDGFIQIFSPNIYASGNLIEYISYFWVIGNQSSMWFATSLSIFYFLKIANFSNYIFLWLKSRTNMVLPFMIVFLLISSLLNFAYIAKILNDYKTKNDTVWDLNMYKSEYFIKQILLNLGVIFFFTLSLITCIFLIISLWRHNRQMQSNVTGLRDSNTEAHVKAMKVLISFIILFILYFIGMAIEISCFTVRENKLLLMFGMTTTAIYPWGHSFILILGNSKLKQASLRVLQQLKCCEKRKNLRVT
# Chain of hT2R3 (Q9NYW6 whole entry): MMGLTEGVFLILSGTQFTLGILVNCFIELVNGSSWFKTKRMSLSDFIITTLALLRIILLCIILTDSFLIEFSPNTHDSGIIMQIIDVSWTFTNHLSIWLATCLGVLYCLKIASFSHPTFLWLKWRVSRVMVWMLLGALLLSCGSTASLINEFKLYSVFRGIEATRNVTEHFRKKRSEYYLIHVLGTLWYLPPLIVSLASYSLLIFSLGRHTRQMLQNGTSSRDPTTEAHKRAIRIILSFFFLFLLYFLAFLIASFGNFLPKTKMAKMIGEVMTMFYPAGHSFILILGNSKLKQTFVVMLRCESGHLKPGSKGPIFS
# Chain of hT2R16 (Q9NYV7 whole entry): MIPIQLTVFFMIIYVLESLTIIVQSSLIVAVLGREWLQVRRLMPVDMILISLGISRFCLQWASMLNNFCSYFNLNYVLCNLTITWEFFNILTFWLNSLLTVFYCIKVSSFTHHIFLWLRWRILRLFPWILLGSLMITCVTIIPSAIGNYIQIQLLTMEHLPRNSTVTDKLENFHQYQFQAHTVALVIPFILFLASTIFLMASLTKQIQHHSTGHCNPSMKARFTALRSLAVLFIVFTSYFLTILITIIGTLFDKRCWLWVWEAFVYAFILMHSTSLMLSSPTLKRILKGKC
# T1 sequence (Q9NYV8 whole entry): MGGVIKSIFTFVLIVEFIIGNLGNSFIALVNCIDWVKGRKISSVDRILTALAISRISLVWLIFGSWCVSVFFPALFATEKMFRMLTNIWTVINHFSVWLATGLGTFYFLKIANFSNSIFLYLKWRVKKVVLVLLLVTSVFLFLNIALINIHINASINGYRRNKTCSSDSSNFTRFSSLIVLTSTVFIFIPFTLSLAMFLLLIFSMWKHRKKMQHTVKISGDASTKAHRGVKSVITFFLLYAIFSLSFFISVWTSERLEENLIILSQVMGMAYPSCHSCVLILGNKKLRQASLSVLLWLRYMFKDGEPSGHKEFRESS
# Chain of hT2R75 (P59540 whole entry): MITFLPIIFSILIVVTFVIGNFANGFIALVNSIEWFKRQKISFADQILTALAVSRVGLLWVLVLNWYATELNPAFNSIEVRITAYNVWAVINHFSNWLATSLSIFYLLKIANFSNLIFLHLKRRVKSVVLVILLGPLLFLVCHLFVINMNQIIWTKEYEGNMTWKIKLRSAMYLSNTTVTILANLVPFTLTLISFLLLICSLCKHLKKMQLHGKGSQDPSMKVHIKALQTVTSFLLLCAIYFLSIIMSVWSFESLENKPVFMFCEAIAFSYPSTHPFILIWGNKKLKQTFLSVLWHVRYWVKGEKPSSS
SMILES,IC50 (hT2R14 [1]; [3]) [µM],inhibition at 25 µM (hT2R13; [4]) [%],inhibition at 25 µM (hT2R14 [2]; [5]) [%],inhibition at 25 µM (hT2R16) [%],screening result against bitter receptor 44 (hT2R44),inhibition at 25 µM (hT2R51) [%],screening result against bitter receptor 54 (hT2R54),screening result against bitter receptor 55 (hT2R55),inhibition at 25 µM (hT2R61; [6]) [%],screening result against bitter receptor 63 (hT2R63),inhibition at 25 µM (hT2R64; [7]) [%],screening result against bitter receptor 67 (hT2R67),inhibition at 25 µM (hT2R71) [%],inhibition at 25 µM (hT2R3; [8]) [%],inhibition at 25 µM (hT2R5; [9]) [%],inhibition at 25 µM (hT2R7; [10]) [%],inhibition at 25 µM (hT2R10) [%],further results
"O=C(O)c1ccc(S(=O)(=O)N(Cc2ccccc2)Cc2ccccc2)cc1 [Example 5-28, 4-(N,N-dibenzylsulfamoyl)benzoic acid]",7.74,20 to 40,> 80,20 to 40,+ (20% to 40% inhibition = +),40 to 60,+ (20% to 40% inhibition = +),++++ (80% or greater inhibition = ++++),40 to 60,++++ (80% or greater inhibition = ++++),> 80,+ (20% to 40% inhibition = +),40 to 60,,,,,inhibition at 25 µM (hT2R75): 20 to 40%
"COc1ccc(CN(Cc2ccc(F)c(OC)c2)S(=O)(=O)c2ccc(C(=O)O)cc2)cc1 [Example 5-50, 4-(N-(4-fluoro-3-methoxybenzyl)-N-(4-methoxybenzyl)sulfamoyl)-benzoic acid]",1.65,20 to 40,> 80,40 to 60,+++ (60% to 80% inhibition = +++),20 to 40,,++++ (80% or greater inhibition = ++++),> 80,++++ (80% or greater inhibition = ++++),60 to 80,++ (40% to 60% inhibition = ++),60 to 80,40 to 60,20 to 40,20 to 40,20 to 40,screening result against bitter receptor 65 (hT2R65): ++ (40% to 60% inhibition = ++)
"Cc1cc2c(cc1S(=O)(=O)Nc1ccc(F)cc1)n(C)c(=O)c(=O)n2C [Example 6-10, N-(4-fluorophenyl)-1,4,7-trimethyl-2,3-dioxo-1,2,3,4-tetrahydroquinoxaline-6-sulfonamide]",,,,,,,,,,,,,,,,,,"IC50 (hT2R14 [1]; Table D, read-out: hT2R14 IC50): 12.6 µM; inhibition at 25 µM (hT2R3; receptor activated to EC80 with agonist, read-out: inhibition of bitter receptor 3): 20 to 40%; inhibition at 25 µM (hT2R5; receptor activated to EC80 with agonist, read-out: inhibition of bitter receptor 5): 20 to 40%; inhibition at 25 µM (hT2R7; receptor activated to EC80 with agonist, read-out: inhibition of bitter receptor 7): 20 to 40%; inhibition at 25 µM (hT2R13; receptor activated to EC80 with agonist, read-out: inhibition of bitter receptor 13): 40 to 60%; inhibition at 25 µM (hT2R14 [2]; receptor activated to EC80 with agonist, read-out: inhibition of bitter receptor 14): 40 to 60%; inhibition of bitter receptor 44 (hT2R44; receptor activated to EC80 with agonist): + (20% to 40% inhibition = +); inhibition at 25 µM (hT2R61; receptor activated to EC80 with agonist, read-out: inhibition of bitter receptor 61): 20 to 40%; inhibition at 25 µM (hT2R64; receptor activated to EC80 with agonist, read-out: inhibition of bitter receptor 64): 20 to 40%"
"COc1ccc(CN(Cc2ccc(OC)c(F)c2)S(=O)(=O)c2ccc(C(=O)O)cc2)cc1 [Example 5-41, 4-(N-(3-fluoro-4-methoxybenzyl)-N-(4-methoxybenzyl)sulfamoyl)-benzoic acid]",1.11,20 to 40,> 80,20 to 40,+++ (60% to 80% inhibition = +++),,+ (20% to 40% inhibition = +),+++ (60% to 80% inhibition = +++),> 80,++++ (80% or greater inhibition = ++++),60 to 80,,40 to 60,40 to 60,20 to 40,,40 to 60,
"O=C(O)c1ccc(S(=O)(=O)N(Cc2ccccc2)Cc2ccc3c(c2)OCO3)cc1 [Example 5-93, 4-(N-(benzo[d][1,3]dioxol-5-ylmethyl)-N-benzylsulfamoyl)benzoic acid]",,20 to 40,> 80,40 to 60,+++ (60% to 80% inhibition = +++),40 to 60,+++ (60% to 80% inhibition = +++),++++ (80% or greater inhibition = ++++),> 80,++++ (80% or greater inhibition = ++++),> 80,++ (40% to 60% inhibition = ++),60 to 80,,20 to 40,20 to 40,40 to 60,
